Assay results reported in ChEMBL document CHEMBL1201862, “PubChem BioAssay data set” (2004).
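Dose response: 5 concentrations. Exposure: 48 h. Format: 96-well plates. Endpoint: linear interpolation; highest concentration if not reached. GI50 marks 50% less growth.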 Active and inactive are the calls of the source. Rule as the data show it: active = GI50 up to about 1.1 µM and inactive = higher.

Assays:
Test in all cases: NCI anticancer screen, dose series, 48 h
SF-295 = tested on: SF-295
SNB-19 = tested on: SNB-19
NCI/ADR-RES = tested on: NCI/ADR-RES
UACC-257 = tested on: UACC-257
SNB-75 = tested on: SNB-75
HCC 2998 = tested on: HCC 2998
SW-620 = tested on: SW-620
M14 = tested on: M14
KM12 = tested on: KM12
NCI-H23 = tested on: NCI-H23
MDA-N = tested on: MDA-N
MCF7 = tested on: MCF7
MDA-MB-435 = tested on: MDA-MB-435
MOLT-4 = tested on: MOLT-4
OVCAR-8 = tested on: OVCAR-8
RXF 393 = tested on: RXF 393
U-251 = tested on: U-251
HL-60 = tested on: HL-60
MDA-MB-231 = tested on: MDA-MB-231
ACHN = tested on: ACHN
SK-MEL-28 = tested on: SK-MEL-28
T47D = tested on: T47D
Hs-578T = tested on: Hs-578T
PC-3 = tested on: PC-3
SK-MEL-5 = tested on: SK-MEL-5
SK-OV-3 = tested on: SK-OV-3
HCT-15 = tested on: HCT-15
SR = tested on: SR
SF-268 = tested on: SF-268
NCI-H460 = tested on: NCI-H460
K562 = tested on: K562
OVCAR-3 = tested on: OVCAR-3
HOP-92 = tested on: HOP-92
A549 = tested on: A549
HCT-116 = tested on: HCT-116
HT-29 = tested on: HT-29
LOX IMVI = tested on: LOX IMVI
UO-31 = tested on: UO-31
NCI-H226 = tested on: NCI-H226
DU-145 = tested on: DU-145
TK-10 = tested on: TK-10
CCRF-CEM = tested on: CCRF-CEM
SN12C = tested on: SN12C
COLO 205 = tested on: COLO 205
NCI-H522 = tested on: NCI-H522
786-0 = tested on: 786-0
RPMI-8226 = tested on: RPMI-8226
UACC-62 = tested on: UACC-62
SF-539 = tested on: SF-539
Malme-3M = tested on: Malme-3M
HOP-62 = tested on: HOP-62
IGROV-1 = tested on: IGROV-1
EKVX = tested on: EKVX
OVCAR-4 = tested on: OVCAR-4
OVCAR-5 = tested on: OVCAR-5
CAKI-1 = tested on: CAKI-1
SK-MEL-2 = tested on: SK-MEL-2

`CCOC(O)C(F)(F)F` (centres undefined) was tested, and the GI50 (SF-295) was > 100 µM (inactive), the GI50 (SNB-19) was > 100 µM (inactive) and the GI50 (NCI/ADR-RES) was > 100 µM (inactive). The GI50 (UACC-257) was > 100 µM (inactive), the GI50 (SNB-75) was > 100 µM (inactive) and the GI50 (HCC 2998) was > 100 µM (inactive). For the same molecule, the GI50 (SW-620) was > 100 µM (inactive), the GI50 (M14) was > 100 µM (inactive) and the GI50 (KM12) was > 100 µM (inactive). For the same molecule, the GI50 (NCI-H23) was > 100 µM (inactive), the GI50 (MDA-N) was > 100 µM (inactive) and the GI50 (MCF7) was > 100 µM (inactive). For the same molecule, the GI50 (MDA-MB-435) was > 100 µM (inactive), the GI50 (MOLT-4) was > 100 µM (inactive) and the GI50 (OVCAR-8) was > 100 µM (inactive). The GI50 (RXF 393) was > 100 µM (inactive), the GI50 (U-251) was > 100 µM (inactive) and the GI50 (HL-60) was > 100 µM (inactive). For the same molecule, the GI50 (MDA-MB-231) was > 100 µM (inactive), the GI50 (ACHN) was > 100 µM (inactive) and the GI50 (SK-MEL-28) was > 100 µM (inactive). The GI50 (T47D) was > 100 µM (inactive), the GI50 (Hs-578T) was > 100 µM (inactive) and the GI50 (PC-3) was > 100 µM (inactive). For the same molecule, the GI50 (SK-MEL-5) was > 100 µM (inactive), the GI50 (SK-OV-3) was > 100 µM (inactive) and the GI50 (HCT-15) was over 100 µM. For the same molecule, the GI50 (SR) was > 100 µM (inactive), the GI50 (SF-268) was > 100 µM (inactive) and the GI50 (NCI-H460) was > 100 µM (inactive). For the same molecule, the GI50 (K562) was > 100 µM (inactive), the GI50 (OVCAR-3) was > 100 µM (inactive) and the GI50 (HOP-92) was > 100 µM (inactive). The GI50 (A549) was > 100 µM (inactive), the GI50 (HCT-116) was > 100 µM (inactive) and the GI50 (HT-29) was > 100 µM (inactive). The GI50 (LOX IMVI) was > 100 µM (inactive), the GI50 (UO-31) was > 100 µM (inactive) and the GI50 (NCI-H226) was > 100 µM (inactive). For the same molecule, the GI50 (DU-145) was > 100 µM (inactive), the GI50 (TK-10) was > 100 µM (inactive) and the GI50 (CCRF-CEM) was > 100 µM (inactive). The GI50 (SN12C) was > 100 µM (inactive) and the GI50 (COLO 205) was > 100 µM (inactive).
In the case of `COP(=O)(OC)C(O)/C=C(\Cl)c1ccc(Cl)cc1` (centres undefined), the GI50 (NCI-H522) was 49.1 µM (inactive), the GI50 (SF-295) was > 100 µM (inactive) and the GI50 (SNB-19) was 75.5 µM (inactive). For the same molecule, the GI50 (786-0) was 19.2 µM (inactive), the GI50 (NCI/ADR-RES) was 23.1 µM (inactive) and the GI50 (UACC-257) was 28.4 µM (inactive). The GI50 (RPMI-8226) was 25.6 µM (inactive), the GI50 (SNB-75) was > 100 µM (inactive) and the GI50 (SW-620) was 38.8 µM (inactive). For the same molecule, the GI50 (M14) was 62.1 µM (inactive), the GI50 (KM12) was > 100 µM (inactive) and the GI50 (NCI-H23) was 21.2 µM (inactive). For the same molecule, the GI50 (UACC-62) was 56 µM (inactive), the GI50 (MCF7) was 96.4 µM (inactive) and the GI50 (MDA-MB-435) was 40.7 µM (inactive). For the same molecule, the GI50 (MOLT-4) was 28.1 µM (inactive), the GI50 (OVCAR-8) was 23.9 µM (inactive) and the GI50 (RXF 393) was 78.2 µM (inactive). For the same molecule, the GI50 (U-251) was 53.2 µM (inactive), the GI50 (SF-539) was > 100 µM (inactive) and the GI50 (HL-60) was 32.9 µM (inactive). For the same molecule, the GI50 (MDA-MB-231) was 43.8 µM (inactive), the GI50 (ACHN) was 85.1 µM (inactive) and the GI50 (SK-MEL-28) was > 100 µM (inactive). For the same molecule, the GI50 (T47D) was 25.3 µM (inactive), the GI50 (Hs-578T) was > 100 µM (inactive) and the GI50 (Malme-3M) was > 100 µM (inactive). The GI50 (HOP-62) was 28.4 µM (inactive), the GI50 (PC-3) was 31.6 µM (inactive) and the GI50 (SK-MEL-5) was 23.7 µM (inactive). The GI50 (SK-OV-3) was > 100 µM (inactive), the GI50 (HCT-15) was 25.9 µM and the GI50 (SR) was 21.3 µM (inactive). For the same molecule, the GI50 (SF-268) was 65.2 µM (inactive), the GI50 (IGROV-1) was > 100 µM (inactive) and the GI50 (EKVX) was > 100 µM (inactive). The GI50 (OVCAR-4) was 37.2 µM (inactive), the GI50 (NCI-H460) was > 100 µM (inactive) and the GI50 (K562) was 43.5 µM (inactive). The GI50 (OVCAR-3) was 19.1 µM (inactive), the GI50 (HOP-92) was 18.9 µM (inactive) and the GI50 (A549) was > 100 µM (inactive). For the same molecule, the GI50 (HCT-116) was 18.4 µM (inactive), the GI50 (HT-29) was > 100 µM (inactive) and the GI50 (LOX IMVI) was 19.6 µM (inactive). The GI50 (UO-31) was 71 µM (inactive), the GI50 (OVCAR-5) was > 100 µM (inactive) and the GI50 (NCI-H226) was > 100 µM (inactive). The GI50 (DU-145) was > 100 µM (inactive), the GI50 (TK-10) was > 100 µM (inactive) and the GI50 (CAKI-1) was 69.2 µM (inactive). The GI50 (CCRF-CEM) was 21.1 µM (inactive), the GI50 (SN12C) was 40.7 µM (inactive) and the GI50 (SK-MEL-2) was > 100 µM (inactive). For the same molecule, the GI50 (COLO 205) was > 100 µM (inactive).
In the case of `COc1cccc(/C=C/c2ccc(S(N)(=O)=O)cc2)c1`, the GI50 (SF-295) was 6.75 µM (inactive), the GI50 (SNB-19) was 46.6 µM (inactive) and the GI50 (786-0) was 17.8 µM (inactive). For the same molecule, the GI50 (NCI/ADR-RES) was 23.1 µM (inactive), the GI50 (UACC-257) was 16.4 µM (inactive) and the GI50 (SNB-75) was 17.4 µM (inactive). The GI50 (HCC 2998) was 10.5 µM (inactive), the GI50 (M14) was 36.1 µM (inactive) and the GI50 (MDA-N) was 17 µM (inactive). The GI50 (MCF7) was 8.07 µM (inactive), the GI50 (RXF 393) was 5.5 µM (inactive) and the GI50 (MDA-MB-231) was 25.1 µM (inactive). For the same molecule, the GI50 (SK-MEL-28) was 44 µM (inactive), the GI50 (T47D) was 4.94 µM (inactive) and the GI50 (Malme-3M) was 23.2 µM (inactive). The GI50 (HOP-62) was 24 µM (inactive), the GI50 (PC-3) was 22.7 µM (inactive) and the GI50 (SK-MEL-5) was 17.1 µM (inactive). For the same molecule, the GI50 (SK-OV-3) was 30.4 µM (inactive), the GI50 (EKVX) was 11.8 µM (inactive) and the GI50 (NCI-H460) was 10.3 µM (inactive). For the same molecule, the GI50 (OVCAR-3) was 5.31 µM (inactive), the GI50 (HCT-116) was 7.36 µM (inactive) and the GI50 (UO-31) was 18.6 µM (inactive). The GI50 (OVCAR-5) was 59.4 µM (inactive), the GI50 (DU-145) was 26.1 µM (inactive) and the GI50 (TK-10) was 12.5 µM (inactive). The GI50 (SN12C) was 18.2 µM (inactive), the GI50 (SK-MEL-2) was 5.9 µM (inactive) and the GI50 (COLO 205) was 11.7 µM (inactive).
